These results are taken from patent US20210322651A1, “SUPPRESSION OF NEOINTIMAL FORMATION FOLLOWING VASCULAR SURGERU USING CDK8 INHIBITORS” (Senex Biotechnology, Inc., priority 2014, published 2021).

Test [1] concerns resident VSCs (Sca-1+, NFM+, Sox17+ cells) in jugular vein isografts. Description: Immunofluorescence staining of VSC and SMC markers (Sca-1, Ki67, SMA, NFM, Sox17) in jugular vein isografts after drug treatment. The class given is in vivo, C57BL/6J mice. Here is the method:
Male C57BL/6J mice were purchased from Vital River Laboratory Animal Technology Co. Ltd, Beijing, China, and housed under a 12:12 h light-dark cycle and given free access to food and water. All animal experiments were performed according to National Institutes of Health Guidelines for the Care and Use of Laboratory Animals and approved by the Institutional Animal Care and Usage Committees at Shandong University and the University of South Carolina, USA. The jugular vein transplantation was performed using different male C57BL/6J mice as donors and recipients. Briefly, 12-wk-old male C57BL/6J mice were anesthetized with pentobarbital sodium (50 mg/kg body weight, i.p.). The operation was performed under a dissecting microscope (SZ2-ILST, Olympus Corporation, Tokyo, Japan). The right common carotid artery of a male C57BL/6J mouse was mobilized and divided. […]
(§1) Tissue sections were subjected to hematoxylin and eosin (H&E) or immunofluorescence staining as previously described^41. […] Fluorescent images were acquired by Nikon Eclipse Ti or UltraVIEW®VOX confocal microscope and analyzed with the Volocity software (PerkinElmer, Waltham, Mass., USA). […]

The next test relates to rat aortic SMCs (RASMCs). The test can be described thus: RASMC proliferation ([3H]thymidine uptake). Format: cell-based. As to the method: Rat aortic SMCs (RASMCs) were isolated from the thoracic aorta and cultured as described elsewhere^40. Enzymatically isolated SMCs from adult male Wistar rats were cultured in high glucose (4.5 g/L) Dulbecco's modified Eagle's medium (DMEM) (Cat#: 11995, Invitrogen, Grand Island, N.Y., USA) with 10% FBS (Invitrogen) in a CO2 incubator at 37° C. Subculture was performed when the cells were grown to the 70˜80% confluent state. We used the RASMCs at passage (P) 32 to do the [^3H]thymidine uptake assay. The P5 Sca-1^+ VSCs or P32 RASMCs were serum-starved for 24 h, and then cultured with full stem cell or regular growth medium with or without simvastatin for 24 h. [^3H]thymidine (1 μCi/ml) were added during the last 4 h of culture. The radioactivity was measured as previously described^41. […] Serum-starved RASMCs at passage 32 were treated with or without 10% FBS and Senexin (Senx A, 2.5 μM) for 24 h. n=4, *p<0.05 vs. control (−) in the same group.

The test system of a further test is Sca-1+ VSCs. The test can be described thus: Sca-1+ cell growth in stem cell growth medium (daily cell count for 8 days; [3H]thymidine uptake). The class given is cell-based, mouse.
A further test concerns jugular vein isografts. The test can be described thus: Neointimal formation in jugular vein isografts (cuff model; H&E and SMA staining, morphological analysis). Format: in vivo, C57BL/6J mice. Here is the method:
Male C57BL/6J mice were purchased from Vital River Laboratory Animal Technology Co. Ltd, Beijing, China, and housed under a 12:12 h light-dark cycle and given free access to food and water. All animal experiments were performed according to National Institutes of Health Guidelines for the Care and Use of Laboratory Animals and approved by the Institutional Animal Care and Usage Committees at Shandong University and the University of South Carolina, USA. The jugular vein transplantation was performed using different male C57BL/6J mice as donors and recipients. Briefly, 12-wk-old male C57BL/6J mice were anesthetized with pentobarbital sodium (50 mg/kg body weight, i.p.). The operation was performed under a dissecting microscope (SZ2-ILST, Olympus Corporation, Tokyo, Japan). The right common carotid artery of a male C57BL/6J mouse was mobilized and divided. A 1-mm cuff with a 1-mm handle (0.65 mm in diameter outside and 0.5 mm inside, F 800/200/100/200, Portex Ltd) was placed on both ends of the artery, and the ends were reverted over the cuff and ligated with an 8-0 silk ligature (130715, 130715, LingQiao). External jugular vein (1 cm) from a donor mouse was harvested and washed with saline solution, and grafted between the 2 ends of the carotid artery without changing the direction of blood flow. The ischemia time of vein segments was less than 15 min. The results are shown in Examples 7-9.
Mice at 0, 1, 3, 7, 14, 21 and 42 days after transplantation (four randomly chosen mice at each time point) were anesthetized with pentobarbital sodium (50 mg/kg body weight, i.p.) and euthanized by exsanguination. […]
From the proximal end, the last section with the cuff tube was counted as #0. […]
as §1

[2] abbreviates: Senexin B, concentration not given.

The structures appear in SMILES notation.

Protocol for Sca-1+ VSCs: Aortic adventitial Sca-1^+ cells were isolated and cultured as previously described^24. Briefly, the aortic arch and root together with a proportion of the heart from male 8-wk-old C57BL/6J mice were removed. Under a dissection microscope, adventitial tissues were carefully harvested. The adventitial tissues were cut into pieces (about 0.5 mm^3) and explanted onto a 3.5 cm dish in a CO2 incubator at 37° C. for 2 h. The stem cell growth medium (CellGro SCGM, CellGenix, Germany) containing 10% FBS (Gibco, USA), 10 ng/ml leukemia inhibitory factor (Lif) (Millipore, Temecula, Calif., USA) and 0.1 mmol/L 2-mercaptoethanol (Invitrogen, USA) was added and incubated for 5-7 days. Medium was changed every 2 days. […] The purity and viability of isolated Sca-1^+ cells were evaluated by immunostaining and trypan blue exclusion, respectively. […]
The P5 Sca-1^+ VSCs or P32 RASMCs were serum-starved for 24 h, and then cultured with full stem cell or regular growth medium with or without simvastatin for 24 h. […] The radioactivity was measured as previously described^41.
P7 Sca-1^+ VSCs (4×10^4/well) were seeded in stem cell medium (SCGM+10% FBS+10 ng/ml Lif+0.1 mmol/L 2-mercaptoethanol) with or without simvastatin (3 μmol/L) or Senexin A (2.5 μmol/L) in 6-well plates. […] The number of cells was counted daily for 8 days.

In the case of `N#Cc1ccc2ncnc(NCCc3ccccc3)c2c1` [Senexin A], the “Sca-1+ cell differentiation into SMCs” value in test [1] (local Senexin A, 7 days) was “inhibited”. The “rat aortic SMC (RASMC) growth” value in the test on rat aortic SMCs (RASMCs) (Senexin A 2.5 μM, 24 h, 10% FBS, passage 32) is “without affecting”. For the same compound, the “Sca-1+ cell proliferation” value in the test with Sca-1+ VSCs (Senexin A 2.5 μM, growth curve 8 days) is listed as “suppressed”. Also, the “neointimal formation in vein isografts” value in the test with jugular vein isografts (Senexin A (3 μmon) peri-vascular in Pluronic F-127 gel immediately after transplantation, 4 weeks) is reported as “suppressed neointimal formation”. Also, in the test on jugular vein isografts (short-term peri-vascular Senexin A, after transplantation), the “duration of inhibitory effect on neointimal formation in vein grafts” value is on record as 100 days.

As for `CN1CCN(C(=O)c2ccc3cc(CCNc4ncnc5ccc(C#N)cc45)ccc3c2)CC1` [Senexin B], the “Sca-1+ cell differentiation into SMCs” value in test [1] (Senexin B 20 mg/kg/d intragastric from 3 days prior, 14 and 28 days) is “inhibited”. Moreover, the SMC proliferation entry with rat aortic SMCs (RASMCs) (setting [2]) is reported as “had no impact”. Also, the “Sca-1+ cell growth” value in the test on Sca-1+ VSCs (setting [2]) is given as “inhibited”. For the same compound, the “neointimal formation in vein isografts” value in the test on jugular vein isografts (Senexin B 20 mg/kg/d intragastric, started 3 days prior to transplantation, 4 wk) is reported as “suppressed neointimal formation”.
